Measurements taken from publication PMC7359039, “Peptides based on the reactive center loop of Manduca sexta serpin-3 block its protease inhibitory function” (Scientific Reports, 2020).

Tests used:
serpin-3∆N [1] = test: Circular dichroism thermal stability of serpin-3∆N and its binary complex with peptide; format: physicochemical, Manduca sexta; conditions: binary complex purified by gel permeation; 10 mM Tris, 5 mM NaCl, pH 8.0; 90 °C highest temperature tested
Procedure: To examine effects of RCL-derived peptides on serpin-3ΔN secondary structure, 600 µL serpin-3ΔN (150 μg) and 1.8 mL Ac-SVAFS-COO^− (25 μmol) were mixed and incubated at 37 °C for 2 h to allow formation of a serpin-peptide binary complex. Then the mixture was subjected to gel permeation chromatography using Superdex 200 10/300 GL ([…]) in 20 mM Tris–HCl, 150 mM NaCl, pH 8.0 to separate binary complex from free peptide. The fractions containing serpin-3ΔN, presumed to be in complex with peptide, were pooled and quantified. Ellipticity of serpin-3ΔN (0.149 mg/ml) or purified binary complex (0.129 mg/ml) in 10 mM Tris, 5 mM NaCl, pH 8.0 was measured in a 0.01 cm cuvette from 190 to 260 nm at 20 °C. The temperature was then increased in 10 °C increments, and the spectra were measured at each temperature from 20 to 90 °C. The ellipticity of the buffer was also recorded and subtracted from that of serpin-3ΔN and binary complex. The data were smoothed by the method of Savitzky-Golay with value of 15[33]. Mean residue ellipticity was calculated as (ellipticity × mean residue weight)/(10 × 0.01 cm × concentration). Three replicates were examined and results were visualized by GraphPad Prism (means ± standard deviation).

[2] = Aqueous solubility of peptides (qualitative); format: physicochemical; conditions: qualitative statement
[3] = test system: proPO activation system in plasma; test: proPO activation in plasma with added serpin-3∆N, untreated or pre-incubated with peptide; format: biochemical, Manduca sexta; conditions: peptide 10 nmol pre-incubated with serpin-3∆N 0.1 µg at 37 °C 2 h, 2 µl plasma, one unit = 0.001 change of OD470 per minute, mean ± SD, n = 4 larvae
Procedure: Hemolymph was collected from day 2 fifth instar larvae and centrifuged at 12,000 rpm for 25 min at 4 °C to remove hemocytes, to prepare plasma samples containing the proPO activation system. To examine the effect of pre-incubation of peptide with serpin before exposure to plasma, Ac-SVAFS-COO^− (10 nmol in TFE) or TFE alone were dried in wells of a 96-well plate and then incubated with 4 µL serpin-3ΔN (0.1 µg) at 37 °C for 2 h, followed by incubation with 2 μl plasma at room temperature for 10 min. Then the proPO cascade was stimulated by addition of 1 μg Micrococcus luteus to activate the proPO protease cascade or filter-sterilized 0.85% NaCl as a control. These mixtures were incubated at room temperature for 10 min, and then PO activity was measured by adding 100 μl of 4 mM dopamine as substrate in 50 mM sodium phosphate, pH 6.5. PO activity was measured by detecting increase in absorbance at 470 nm. One unit of PO activity was defined as 1,000 × ∆A470/minute. Three replicates with four different larval plasma samples were examined. Paired one-way ANOVA with Tukey’s multiple comparison as post test was performed in GraphPad Prism.

serpin-3∆N [4] = test: Time course of inactivation of serpin-3∆N by pentapeptides; format: biochemical, Manduca sexta; conditions: peptide 400 nmol, serpin-3∆N 720 ng, 37 °C; for suppression of serpin-3∆N inhibitory activity by 40 min: aliquots with 72 ng PAP3 10 min room temperature, IEARase activity
Procedure: To examine the time course of peptide interaction with serpin-3ΔN, pre-dried Ac-SVAFS-NH2 or Ac-SVAFS-COO^- (400 nmol) were incubated with 40 μL purified serpin-3ΔN (720 ng) supplemented with 40 μL BSA (80 μg) at 37 °C for 1 h. At 0, 10, 20, 40 and 60 min, 12 μL aliquots were withdrawn and immediately incubated with 72 ng of PAP3 at room temperature for 10 min, followed by measuring residual PAP3 activity with […] in 0.1 M Tris, 0.1 M NaCl, 5 mM CaCl2, pH 8.0.

serpin-3∆N [5] = test: SDS-PAGE and immunoblot of serpin-3∆N/PAP3 inhibitory complex formation in presence of peptides; format: biochemical, Manduca sexta; conditions: peptide 25 nmol, serpin-3∆N 135 ng 37 °C 2 h, PAP3 108 ng 10 min; reducing SDS-PAGE, serpin-3 antiserum
Procedure: Protein concentration was measured using Coomassie Plus Protein Assay Reagent (Thermo Scientific), with bovine serum albumin as a standard. Protein samples analyzed by SDS polyacrylamide gel electrophoresis were mixed with 2 × or 6 × SDS loading buffer (supplemented with β-mercaptoethanol) followed by heating at 95 °C for 5 min. Samples were loaded into wells of 4–12% Bis–Tris NuPAGE gels (Invitrogen) and separated by electrophoresis using MOPS buffer. The gels were stained using Instant Blue (Expedeon) or transferred to nitrocellulose in a semi-dry transfer cell (Bio-Rad). The presence of PAP3 or serpin-3ΔN on the membrane was detected using rabbit antisera to PAP3[31] or serpin-3[13], followed by goat anti-rabit IgG conjugated to alkaline phosphatase (BioRad) and colorimetric detection of immobilized alkaline phosphatase activity.
Peptides (25 nmol) in TFE or TFE alone as a control were applied to wells of a 96-well plate and allowed to dry (> 1 h). Serpin-3ΔN (135 ng/7.5 µl) was then added to the wells and incubated at 37 °C for 2 h. […] The PAP3 substrate N-acetyl-Ile-Glu-Ala-Arg-p-nitroanilide (IEAR-pNA) at 50 µM in 0.1 M Tris, 0.1 M NaCl, 5 mM CaCl2, pH 8.0 was then added, and residual PAP3 activity was measured by the change of absorbance at 405 nm over 20 min at room temperature. […] Samples were then analyzed by reducing SDS-PAGE and immunoblotting as described above.

[6] = test system: proPO activation system in plasma (endogenous serpin-3); test: proPO activation in plasma mixed directly with peptide; format: biochemical, Manduca sexta; conditions: plasma incubated with pre-dried peptide 1 h room temperature, then M. luteus 10 min; one unit = 0.001 change of OD470 per minute; mean ± SD, n = 4 larvae
Procedure: For an experiment to test the effects of peptide mixed directly to plasma samples, pre-dried Ac-SVAFS-NH2 (25 nmol) or TFE in wells of a 96-well plate were incubated with 5 μl plasma for 1 h at room temperature, followed by addition of 95 μl of 50 mM sodium phosphate buffer, pH 6.5 supplemented with or without 2 μg of M. luteus (Sigma). After incubation for 10 min at room temperature, PO activity was measured as described above. Three replicates with four different larval plasma samples were examined. Statistical analysis was done as described above.

serpin-3∆N [7] = test: Blocking of serpin-3∆N inhibition of PAP3 by RCL-derived peptides (residual IEARase activity); format: biochemical, Manduca sexta; conditions: serpin-3∆N 135 ng, 37 °C 2 h; for PAP3 activity (percentage of IEARase activity) after treatment of serpin-3∆N with peptide: peptide 25 nmol pre-dried, then PAP3 108 ng 10 min room temperature, IEAR-pNA 50 µM, mean ± SD, n = 3; for blockage of serpin-3∆N inhibition of PAP3: peptide 25 nmol, PAP3 108 ng
Procedure: Peptides (25 nmol) in TFE or TFE alone as a control were applied to wells of a 96-well plate and allowed to dry (> 1 h). Serpin-3ΔN (135 ng/7.5 µl) was then added to the wells and incubated at 37 °C for 2 h. PAP3 (108 ng) supplemented with 18 μg bovine serum albumin (BSA) in 46.5 µl 20 mM Tris, 150 mM NaCl, pH 8.0,was then added to the wells and incubated for 10 min at room temperature. The PAP3 substrate N-acetyl-Ile-Glu-Ala-Arg-p-nitroanilide (IEAR-pNA) at 50 µM in 0.1 M Tris, 0.1 M NaCl, 5 mM CaCl2, pH 8.0 was then added, and residual PAP3 activity was measured by the change of absorbance at 405 nm over 20 min at room temperature. Percentage of IEARase activity was defined as IEARase activity divided by IEARase activity of PAP3 in the absence of serpin. One-way ANOVA with Tukey’s multiple comparison as post test was performed in GraphPad Prism. Samples for analysis by reducing SDS-PAGE and immunoblotting were prepared in a similar way. Peptides or TFE were dried in 1.5 mL microcentrifuge tubes and incubated with 7.5 µl serpin-3ΔN (135 ng) at 37 °C for 2 h, followed by addition of 46.5 µl PAP3 (108 ng) supplemented with 18 µg BSA. and further incubated for 10 min at room temperature. Samples were then analyzed by reducing SDS-PAGE and immunoblotting as described above.

[8] = target: Manduca sexta prophenoloxidase activating protease 3 (PAP3), activated form (Manduca sexta)
[9] = target: Manduca sexta serpin-3∆N (Manduca sexta)
[10] = target: Manduca sexta serpin-3∆N (Manduca sexta); remark: listed apart in the source

Ac-SVAFS-COO^−
temperature up to which serpin-3∆N in complex with peptide showed little change in CD spectrum (serpin-3∆N [1]): ≥ 90 °C | aqueous solubility [2]: improved solubility | aqueous solubility ([2]; listed as five residue peptide SVAFS with only an N-terminal acetylated group): much more soluble | PO activity in M. luteus-stimulated plasma with peptide-treated serpin-3∆N added [3]: 8.7 ± 2.8 unit | time after which inactivation of serpin-3∆N began to occur (serpin-3∆N [4]): ≤ 10 min | suppression of serpin-3∆N inhibitory activity by 40 min (serpin-3∆N [4]): ~ 100%

Ac-SVAFS-NH2 [pentapeptide from serpin-3 RCL P14-P10, acetylated and amidated]
~75 kDa serpin-3∆N-PAP3 inhibitory complex on immunoblot (serpin-3∆N [5]): absence | aqueous solubility [2]: very low | PO activity in plasma incubated with peptide, after addition of bacteria [6]: 10.7 ± 5.5 unit | time after which inactivation of serpin-3∆N began to occur (serpin-3∆N [4]): ≤ 10 min | suppression of serpin-3∆N inhibitory activity by 40 min (serpin-3∆N [4]): ~ 100% | PAP3 activity (percentage of IEARase activity) after treatment of serpin-3∆N with peptide (serpin-3∆N [7]): 100% ± 6% | blockage of serpin-3∆N inhibition of PAP3 (serpin-3∆N [7]): completely blocked

Ac-SVAFSATQ-NH2 [octapeptide from serpin-3 RCL P14-P7]
PAP3 activity (percentage of IEARase activity) after treatment of serpin-3∆N with peptide (serpin-3∆N [7]): 59% ± 5% | blockage of serpin-3∆N inhibition of PAP3 (serpin-3∆N [7]): about 50%

Manduca sexta serpin-3∆N (domain or fragment)
residual PAP3 amidase (IEARase) activity on IEAR-pNA after 10 min with serpin-3∆N, percent of PAP3 without serpin [8]: 9%

B1: Ac-SVAFS-COO^− (peptide)
peptide: Ac-SVAFS-OH
time course (0-60 min at 37 °C, 400 nmol peptide) of suppression of serpin-3∆N inhibition of PAP3, read as PAP3 IEARase activity [9]: 100%

B2: Ac-SVAFS-NH2 (peptide)
peptide: Ac-SVAFS-NH2
residual PAP3 amidase (IEARase) activity after serpin-3∆N was pre-treated with 25 nmol peptide (37 °C, 2 h); the peptide blocks inhibition of PAP3 by serpin-3∆N [10]: 100% | time course (0-60 min at 37 °C, 400 nmol peptide) of suppression of serpin-3∆N inhibition of PAP3, read as PAP3 IEARase activity [9]: 100%

B3: Ac-SVAFSATQ-NH2 (peptide)
peptide: Ac-SVAFSATQ-NH2
residual PAP3 amidase (IEARase) activity after serpin-3∆N was pre-treated with 25 nmol peptide (37 °C, 2 h); the peptide blocks inhibition of PAP3 by serpin-3∆N [10]: 59%
